This is an account of results in article PMC7933930, “Development of a small molecule that corrects misfolding and increases secretion of Z α1‐antitrypsin” (EMBO Molecular Medicine, 2021).

SMILES strings stand for the structures. pEC50, pIC50: −log10 of the molar value. Where two headings read alike, the source gives them in different places.

Series [1] concerns P-gp (MDR1). As to the kind of experiment: Permeability in MDR1‐MDCK cells with pgp inhibitor. The format is in vitro ADME. The following applies: dog. The protocol:
Permeability in MDR1‐MDCK cells in the presence of pgp inhibitor GF120918 was high at 248 and 240 nm/s for the apical to basal and basal to apical directions, respectively (N53531‐23 for DI).
MDR1‐MDCK cells were used between passage numbers 6–30. Cells were seeded onto Millipore Multiscreen Transwell plates at 3.4 × 10^5 cells/cm^2. The cells were cultured in DMEM and media was changed on day 3. On day 4 the permeability study was performed. Cell culture and assay incubations were carried out at 37°C in an atmosphere of 5% v/v CO2 with a relative humidity of 95%. On the day of the assay, the monolayers were prepared by rinsing both apical and basolateral surfaces twice with Hanks Balanced Salt Solution (HBSS) at the desired pH warmed to 37°C. Cells were then incubated with HBSS at the desired pH in both apical and basolateral compartments for 40 min to stabilise physiological parameters. Where applicable, a P‐gp inhibitor (elacridar, 2 µM) was included on both sides of the monolayer for the equilibration period. For assessment of apical‐basolateral permeability, HBSS was removed from the apical compartment and replaced with test compound dosing solution. The apical compartment insert was then placed into a companion plate containing fresh buffer (containing 0.5% v/v DMSO or, where applicable, a P‐gp inhibitor, maintaining a 0.5% v/v DMSO concentration). […]

In series [2] the test system is Z α1‐antitrypsin secretion in CHO‐TET‐ON‐Z‐A1AT cells. As to the kind of experiment: Secretion of Z α1‐antitrypsin from CHO‐TET‐ON‐Z‐A1AT cells (TR‐FRET). The format is cell-based. The note with it: n = 74, read-out: mean pEC50, secretion of Z α1‐antitrypsin (converted).
Series [3] deals with Dopamine D2 (Homo sapiens, UniProt P14416). Briefly: Off‐target panel: Dopamine D2. The format is cell-based. The protocol: (§1) GSK716 selectivity and PK properties were profiled in order to investigate the suitability of GSK716 for progression into in vivo studies and the potential for taking it forward as a clinical candidate for testing in humans. Since GSK716 results in loss of inhibitory activity of α1‐antitrypsin, the effect of the compound was assessed on other closely related serpins. […] Furthermore, there were no off‐target effects in a panel of assays considered predictive of known safety liabilities that precluded further development of GSK716 (Table EV1).

Series [4] concerns the target Norepinephrine transporter (Homo sapiens, UniProt P23975). As to the kind of experiment: Off‐target panel: Norepinephrine transporter. The format is cell-based. The protocol:
as §1

The target in series [5] is Vasopressin V1a (Homo sapiens, UniProt P37288). As to the kind of experiment: Off‐target panel: Vasopressin V1a (DRX). The format is cell-based. The following applies: Antagonist, read-out: Mean (PXC50). The protocol:
as §1

Series [6] concerns the target α1 nicotinic AChR (Homo sapiens, UniProt P02708). As to the kind of experiment: Off‐target panel: α1 nicotinic AChR. The format is cell-based. The protocol:
as §1

Series [7] addresses T1, plasma‐purified wild‐type M α1‐antitrypsin (Homo sapiens, UniProt P01009).
T1 construct: purified from the plasma of M (wild‐type) and Z α1‐antitrypsin homozygotes; from tissue; host or cells: human plasma of M (wild-type) homozygotes
Briefly: Competition binding assay with Alexa488‐labelled analogue of GSK716, M α1‐antitrypsin. An excerpt:
The shape of the curves and native mass spectrometry (not shown) are consistent with a single high‐affinity compound binding site. No binding of the fluorescent derivative to polymers of Z α1‐antitrypsin was observed, indicating conformational selectivity for the monomeric protein (Fig 1D). The rate of interaction of the compound with the target was monitored through changes in intrinsic tryptophan fluorescence (Dafforn et al, 1999); this property was used to determine the second‐order association rate constants for GSK716 binding to Z (4.1 × 10^4 M^−1 s^−1) and M α1‐antitrypsin (2.1 × 10^2 M^−1 s^−1; Fig 1E and F). […] Therefore, the selectivity of the compound for Z over M α1‐antitrypsin is dominated by the difference in the rate of association rather than dissociation.
Kinetic parameters of GSK716 binding to M, Z, S (Glu264Val) and Baghdad (Ala336Pro) (Haq et al, 2016) α1‐antitrypsin were measured by detecting intrinsic tryptophan fluorescence of the protein (excitation at 280 nm and detection of emission at 320 nm) on a stopped flow apparatus (Applied Photophysics) (Kim & Yu, 1996; Dafforn et al, 1999). […]

Series [8] has as its target NK1 (TACR1) (Homo sapiens, UniProt P25103). Briefly: Off‐target panel: NK1 (TACR1) (DRX). It is filed as cell-based. The note with it: Antagonist, read-out: Mean (PXC50). The protocol:
as §1

Series [9] concerns the target Serotonin 5HT2B (Homo sapiens, UniProt P41595). Briefly: Off‐target panel: Serotonin 5HT2B (DRX). It is filed as cell-based. The protocol:
as §1

Series [10] concerns the target Dopamine D1 (Homo sapiens, UniProt P21728). As to the kind of experiment: Off‐target panel: Dopamine D1. It is filed as cell-based. The protocol:
as §1

For series [11], the target named is Z α1‐antitrypsin (Homo sapiens, UniProt P01009, E366K). As to the kind of experiment: Rapid refolding by snap dilution, non‐denaturing PAGE. The format is biochemical. More on the design: purified from the plasma of Z α1‐antitrypsin homozygotes; from tissue; host or cells: human plasma of Z α1-antitrypsin homozygotes. The following applies: snap dilution from denaturant.

For series [12], the system named is GABA-A. As to the kind of experiment: Off‐target panel: GABA-A (Barracuda). The format is cell-based. The protocol:
as §1

Dopamine D2, sequence (P14416 whole entry): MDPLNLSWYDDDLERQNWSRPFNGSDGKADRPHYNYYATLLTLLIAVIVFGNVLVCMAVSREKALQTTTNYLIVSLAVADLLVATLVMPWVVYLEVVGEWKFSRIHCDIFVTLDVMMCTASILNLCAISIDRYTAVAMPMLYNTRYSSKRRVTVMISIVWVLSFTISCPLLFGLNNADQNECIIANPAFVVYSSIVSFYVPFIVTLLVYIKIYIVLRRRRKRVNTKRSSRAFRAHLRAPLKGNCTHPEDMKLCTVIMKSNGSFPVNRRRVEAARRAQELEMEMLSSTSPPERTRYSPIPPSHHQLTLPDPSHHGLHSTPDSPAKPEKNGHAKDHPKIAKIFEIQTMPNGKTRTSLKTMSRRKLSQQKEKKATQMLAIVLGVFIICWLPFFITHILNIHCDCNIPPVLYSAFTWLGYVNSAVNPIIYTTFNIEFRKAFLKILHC
α1 nicotinic AChR, sequence (P02708 21-457): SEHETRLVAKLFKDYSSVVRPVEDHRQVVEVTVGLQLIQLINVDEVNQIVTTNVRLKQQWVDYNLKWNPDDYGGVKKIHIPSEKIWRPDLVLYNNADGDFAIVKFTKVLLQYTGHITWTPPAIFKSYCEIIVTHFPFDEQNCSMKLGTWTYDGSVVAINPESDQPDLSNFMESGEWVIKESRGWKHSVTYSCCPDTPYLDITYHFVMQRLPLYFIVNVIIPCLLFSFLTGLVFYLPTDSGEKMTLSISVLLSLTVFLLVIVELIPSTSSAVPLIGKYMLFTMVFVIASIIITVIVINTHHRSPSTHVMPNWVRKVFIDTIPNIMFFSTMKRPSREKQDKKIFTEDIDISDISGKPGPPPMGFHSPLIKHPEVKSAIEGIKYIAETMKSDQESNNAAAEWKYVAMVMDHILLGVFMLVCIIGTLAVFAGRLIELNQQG
α1 nicotinic AChR, sequence (P11230 24-501 partner): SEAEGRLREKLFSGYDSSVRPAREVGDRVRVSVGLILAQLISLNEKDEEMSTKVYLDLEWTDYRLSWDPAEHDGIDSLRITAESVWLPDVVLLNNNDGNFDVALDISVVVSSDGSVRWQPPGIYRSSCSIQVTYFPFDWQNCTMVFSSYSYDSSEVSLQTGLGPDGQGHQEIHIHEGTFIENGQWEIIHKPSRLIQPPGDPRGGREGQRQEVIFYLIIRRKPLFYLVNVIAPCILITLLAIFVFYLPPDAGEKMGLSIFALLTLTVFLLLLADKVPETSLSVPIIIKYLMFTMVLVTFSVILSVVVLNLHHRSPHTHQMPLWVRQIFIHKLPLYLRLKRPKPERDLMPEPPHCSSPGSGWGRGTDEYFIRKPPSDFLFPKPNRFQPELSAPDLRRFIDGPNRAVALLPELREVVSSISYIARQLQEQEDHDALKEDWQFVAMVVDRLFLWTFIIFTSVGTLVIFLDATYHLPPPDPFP
α1 nicotinic AChR, sequence (Q07001 22-517 partner): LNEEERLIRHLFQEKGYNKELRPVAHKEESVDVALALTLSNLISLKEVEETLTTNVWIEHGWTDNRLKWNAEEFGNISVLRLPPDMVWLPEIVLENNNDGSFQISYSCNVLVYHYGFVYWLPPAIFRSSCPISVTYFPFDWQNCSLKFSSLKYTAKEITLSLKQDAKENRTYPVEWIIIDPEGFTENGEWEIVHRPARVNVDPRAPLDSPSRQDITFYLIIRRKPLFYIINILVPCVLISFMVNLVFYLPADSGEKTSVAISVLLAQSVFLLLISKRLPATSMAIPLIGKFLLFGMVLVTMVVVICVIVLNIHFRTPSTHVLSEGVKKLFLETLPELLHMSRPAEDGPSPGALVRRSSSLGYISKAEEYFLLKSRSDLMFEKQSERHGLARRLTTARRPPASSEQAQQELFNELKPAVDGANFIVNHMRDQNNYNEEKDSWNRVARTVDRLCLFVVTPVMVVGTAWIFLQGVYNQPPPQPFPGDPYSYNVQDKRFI
T1 sequence (P01009 25-418): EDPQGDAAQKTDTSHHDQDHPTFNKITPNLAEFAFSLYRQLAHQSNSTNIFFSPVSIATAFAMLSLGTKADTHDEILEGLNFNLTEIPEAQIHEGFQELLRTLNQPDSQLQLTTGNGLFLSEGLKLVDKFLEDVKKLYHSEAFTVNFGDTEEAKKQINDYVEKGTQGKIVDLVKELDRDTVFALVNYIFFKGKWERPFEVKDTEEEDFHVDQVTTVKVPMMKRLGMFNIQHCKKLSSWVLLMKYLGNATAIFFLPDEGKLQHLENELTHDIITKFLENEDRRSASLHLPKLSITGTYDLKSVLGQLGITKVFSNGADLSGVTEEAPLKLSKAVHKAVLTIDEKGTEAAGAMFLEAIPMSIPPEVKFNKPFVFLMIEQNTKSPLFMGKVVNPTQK
Vasopressin V1a, sequence (P37288 whole entry): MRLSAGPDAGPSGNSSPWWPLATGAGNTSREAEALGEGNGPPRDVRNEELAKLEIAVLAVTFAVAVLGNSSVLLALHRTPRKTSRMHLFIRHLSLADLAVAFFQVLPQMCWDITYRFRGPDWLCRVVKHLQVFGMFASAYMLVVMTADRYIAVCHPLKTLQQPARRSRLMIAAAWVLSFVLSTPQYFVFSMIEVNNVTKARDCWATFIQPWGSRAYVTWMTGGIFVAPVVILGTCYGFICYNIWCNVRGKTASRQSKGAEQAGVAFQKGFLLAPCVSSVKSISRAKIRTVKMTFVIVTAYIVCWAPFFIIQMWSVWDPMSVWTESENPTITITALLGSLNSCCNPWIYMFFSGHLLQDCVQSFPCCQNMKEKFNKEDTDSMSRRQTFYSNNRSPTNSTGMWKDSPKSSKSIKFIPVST
Z α1‐antitrypsin, sequence (P01009 25-418 E366K): as the sequence (P01009 25-418) above, with E342K counted along it
Serotonin 5HT2B, sequence (P41595 whole entry): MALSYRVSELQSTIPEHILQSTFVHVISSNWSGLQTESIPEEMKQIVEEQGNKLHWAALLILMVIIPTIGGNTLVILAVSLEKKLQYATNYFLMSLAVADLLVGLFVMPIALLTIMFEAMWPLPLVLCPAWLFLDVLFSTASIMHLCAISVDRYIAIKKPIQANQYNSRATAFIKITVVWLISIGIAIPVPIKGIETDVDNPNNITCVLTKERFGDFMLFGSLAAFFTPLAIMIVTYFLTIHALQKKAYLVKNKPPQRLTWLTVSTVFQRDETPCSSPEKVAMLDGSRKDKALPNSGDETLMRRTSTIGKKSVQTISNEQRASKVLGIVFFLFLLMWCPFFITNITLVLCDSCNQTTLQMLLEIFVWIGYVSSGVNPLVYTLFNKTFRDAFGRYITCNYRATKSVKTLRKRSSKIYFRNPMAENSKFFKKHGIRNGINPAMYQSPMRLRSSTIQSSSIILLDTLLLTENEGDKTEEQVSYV
NK1 (TACR1), sequence (P25103 whole entry, species assumed): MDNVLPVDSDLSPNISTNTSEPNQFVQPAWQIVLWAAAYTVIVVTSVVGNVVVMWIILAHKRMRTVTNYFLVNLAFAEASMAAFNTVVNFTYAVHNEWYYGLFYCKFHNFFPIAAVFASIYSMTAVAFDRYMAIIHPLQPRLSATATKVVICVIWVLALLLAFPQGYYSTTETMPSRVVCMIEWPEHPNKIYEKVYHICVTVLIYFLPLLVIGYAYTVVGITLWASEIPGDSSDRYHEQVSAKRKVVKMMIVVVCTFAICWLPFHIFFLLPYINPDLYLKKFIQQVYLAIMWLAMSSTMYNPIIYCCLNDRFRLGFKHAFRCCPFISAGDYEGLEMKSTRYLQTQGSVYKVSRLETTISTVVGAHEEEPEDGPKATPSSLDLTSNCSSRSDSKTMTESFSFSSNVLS
Dopamine D1, sequence (P21728 whole entry): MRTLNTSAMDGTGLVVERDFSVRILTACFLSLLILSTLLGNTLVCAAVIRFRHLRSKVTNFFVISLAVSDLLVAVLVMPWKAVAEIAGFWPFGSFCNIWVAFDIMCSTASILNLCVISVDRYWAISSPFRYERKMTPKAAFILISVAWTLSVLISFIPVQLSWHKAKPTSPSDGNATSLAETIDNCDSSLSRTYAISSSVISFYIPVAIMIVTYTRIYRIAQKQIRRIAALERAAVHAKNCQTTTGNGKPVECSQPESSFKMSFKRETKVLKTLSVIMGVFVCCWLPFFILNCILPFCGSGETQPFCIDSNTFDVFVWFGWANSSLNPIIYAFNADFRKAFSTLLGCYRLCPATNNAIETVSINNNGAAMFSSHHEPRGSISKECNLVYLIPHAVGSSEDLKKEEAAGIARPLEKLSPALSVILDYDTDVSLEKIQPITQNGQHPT
Norepinephrine transporter, sequence (P23975 whole entry, species assumed): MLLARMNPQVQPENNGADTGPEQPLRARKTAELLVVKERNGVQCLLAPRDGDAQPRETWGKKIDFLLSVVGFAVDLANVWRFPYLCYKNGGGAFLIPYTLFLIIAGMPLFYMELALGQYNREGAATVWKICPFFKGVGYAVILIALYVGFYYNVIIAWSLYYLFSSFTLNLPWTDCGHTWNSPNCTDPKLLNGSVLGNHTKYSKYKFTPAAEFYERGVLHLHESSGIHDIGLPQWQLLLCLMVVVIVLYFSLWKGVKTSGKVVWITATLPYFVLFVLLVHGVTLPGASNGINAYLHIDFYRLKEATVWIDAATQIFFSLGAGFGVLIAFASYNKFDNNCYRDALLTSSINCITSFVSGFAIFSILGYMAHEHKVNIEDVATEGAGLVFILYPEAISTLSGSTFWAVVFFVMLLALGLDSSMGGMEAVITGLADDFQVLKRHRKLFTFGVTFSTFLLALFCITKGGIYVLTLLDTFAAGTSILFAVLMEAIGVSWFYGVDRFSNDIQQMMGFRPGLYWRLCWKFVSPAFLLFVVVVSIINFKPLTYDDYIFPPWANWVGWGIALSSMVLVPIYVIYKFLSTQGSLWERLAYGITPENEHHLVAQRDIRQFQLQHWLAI

With `CCC[C@@H](NC(=O)c1cccc2c1CC(=O)N2)[C@@H](O)c1cccc(F)c1C` [GSK716], the Papp at 60 min in series [1] (with pgp inhibitor GF120918, read-out: permeability, apical to basal) amounted to 24.8 ×10⁻⁶ cm/s; in [1] (with pgp inhibitor GF120918, read-out: permeability, basal to apical), 24 ×10⁻⁶ cm/s. Also, the EC50 in series [2] was 0.631 µM. Moreover, the pEC50 in [3] was less than 4.00; in [6], less than 4.30; in series [9], 4.40. For the same compound, the pIC50 in series [3] was less than 4.00; in series [4], less than 4.00; in series [5] it was less than 4.30; in series [6], 4.50; in [8], less than 4.60; in [10], less than 4.00. In series [7], the “selectivity: affinity for Z over M α1‐antitrypsin” value is on record as 50 fold. Also, the Kd in [7] (plasma‐purified wild‐type M α1‐antitrypsin, n = 10, mean ± SD, read-out: mean pKD (converted)) was 0.158 µM. Moreover, in series [11], the “misfolded by‐product of M* on refolding of the Z variant” value is “corrected at stoichiometric concentrations and above”. In addition, the “Mean (PXC50)” value in [12] (Agonist), in series [12] (Antagonist) and in [12] (Pos Mod) was less than 4 each time.

The pEC50 is the negative decadic logarithm of the EC50, by convention in mol/L. A higher pEC50 goes with a small EC50.
